IC50 data for 17 molecules are collected here from ChEMBL document CHEMBL1135094, “Potent, orally active inhibitors of lipoprotein-associated phospholipase A(2): 1-(biphenylmethylamidoalkyl)-pyrimidones” (Bioorg Med Chem Lett, 2002).

The assay deals with T1, Platelet-activating factor acetylhydrolase (Homo sapiens, UniProt Q13093).
T1 sequence (Q13093 whole entry): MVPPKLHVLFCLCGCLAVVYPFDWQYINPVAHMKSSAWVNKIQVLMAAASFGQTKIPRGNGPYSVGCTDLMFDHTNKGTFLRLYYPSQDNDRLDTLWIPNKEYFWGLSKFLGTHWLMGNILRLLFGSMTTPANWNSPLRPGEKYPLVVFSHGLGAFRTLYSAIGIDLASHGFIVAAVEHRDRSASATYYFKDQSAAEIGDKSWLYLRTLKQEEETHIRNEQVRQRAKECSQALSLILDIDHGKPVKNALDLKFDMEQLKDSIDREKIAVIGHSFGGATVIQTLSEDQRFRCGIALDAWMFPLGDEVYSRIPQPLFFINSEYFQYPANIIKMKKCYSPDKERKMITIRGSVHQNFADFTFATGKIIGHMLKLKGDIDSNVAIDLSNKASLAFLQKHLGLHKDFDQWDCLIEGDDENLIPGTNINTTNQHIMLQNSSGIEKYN
As to the kind of experiment: Inhibitory activity against recombinant human Lp-PLA2 (Lp-PLA2).

What is called IC50 is the midpoint of a concentration-inhibition curve. Turning to `COc1ncc(Cc2cn(CC(=O)N(C)Cc3ccc(-c4ccc(C(F)(F)F)cc4)cc3)c(SCc3ccc(F)cc3)nc2=O)cn1`, the IC50 stood at 0.2 nM.
To `Cn1cc(Cc2cn(CCCC(=O)NCc3ccc(-c4ccc(F)cc4)cc3)c(SCc3ccc(F)cc3)nc2=O)cn1` belongs 4 nM.
To `Cn1cc(Cc2cn(CCCC(=O)NCc3ccc(-c4ccccc4)cc3)c(SCc3ccc(F)cc3)nc2=O)cn1` belongs 5 nM.
To `CN(Cc1ccc(-c2ccc(Cl)cc2)cc1)C(=O)Cn1cc(Cc2cnc(N(C)C)nc2)c(=O)nc1SCc1ccc(F)cc1` belongs 0.8 nM; to `COc1ncc(Cc2cn(CCCC(=O)NCc3ccc(-c4ccccc4)cc3)c(SCc3ccc(F)cc3)nc2=O)cn1`, 4 nM.
In the case of `COc1ncc(Cc2cn(CC(=O)N(C)Cc3ccc(-c4ccc(F)cc4)cc3)c(SCc3ccc(F)cc3)nc2=O)cn1`, the IC50 came out at 0.6 nM.
Turning to `COc1ncc(Cc2cn(CCCC(=O)N(C)Cc3ccc(-c4ccc(Cl)cc4)cc3)c(SCc3ccc(F)cc3)nc2=O)cn1`, the half-inhibitory concentration (IC50) came out at 5 nM.
For the molecule `O=C(Cn1cc(Cc2cncnc2)c(=O)nc1SCc1ccc(F)cc1)NCc1ccccc1-c1ccccc1`, the IC50 was 194 nM.
To `O=C(Cn1cc(Cc2cncnc2)c(=O)nc1SCc1ccc(F)cc1)NCc1ccc(-c2ccccc2)cc1` belongs 4 nM.
Take `CN(Cc1ccc(-c2ccccc2)cc1)C(=O)Cn1cc(Cc2cncnc2)c(=O)nc1SCc1ccc(F)cc1`: the IC50 stood at 8 nM.
To `COc1ncc(Cc2cn(CCCC(=O)NCc3ccc(-c4ccc(Cl)cc4)cc3)c(SCc3ccc(F)cc3)nc2=O)cn1` belongs 4 nM.
To `CCn1cc(Cc2cn(CC(=O)N(C)Cc3ccc(-c4ccc(Cl)cc4)cc3)c(SCc3ccc(F)cc3)nc2=O)cnc1=O` belongs 0.5 nM.
To `O=C(Cn1cc(Cc2cncnc2)c(=O)nc1SCc1ccc(F)cc1)NCc1cccc(-c2ccccc2)c1` belongs 24 nM.
In the case of `CN(Cc1ccc(-c2ccc(Cl)cc2)cc1)C(=O)Cn1cc(Cc2cnc(C(F)(F)F)nc2)c(=O)nc1SCc1ccc(F)cc1`, the IC50 is 5 nM.
To `CN(Cc1ccc(-c2ccc(Cl)cc2)cc1)C(=O)Cn1cc(Cc2cnc(N3CCOCC3)nc2)c(=O)nc1SCc1ccc(F)cc1` belongs 1 nM.
To `COc1ncc(Cc2cn(CC(=O)NCc3ccc(-c4ccc(Cl)cc4)cc3)c(SCc3ccc(F)cc3)nc2=O)cn1` belongs 0.5 nM; to `CN(Cc1ccc(-c2ccc(F)cc2)cc1)C(=O)CCCn1cc(Cc2cnn(C)c2)c(=O)nc1SCc1ccc(F)cc1`, 8 nM.
